The record followed here is patent US10792377B2, “Compounds and method for imaging cancer” (Vanderbilt University, priority 2017, dated 2020).

One assay concerns the target T1, ovine COX-1 (Ovis aries, UniProt P05979).
T1 sequence (P05979 25-600): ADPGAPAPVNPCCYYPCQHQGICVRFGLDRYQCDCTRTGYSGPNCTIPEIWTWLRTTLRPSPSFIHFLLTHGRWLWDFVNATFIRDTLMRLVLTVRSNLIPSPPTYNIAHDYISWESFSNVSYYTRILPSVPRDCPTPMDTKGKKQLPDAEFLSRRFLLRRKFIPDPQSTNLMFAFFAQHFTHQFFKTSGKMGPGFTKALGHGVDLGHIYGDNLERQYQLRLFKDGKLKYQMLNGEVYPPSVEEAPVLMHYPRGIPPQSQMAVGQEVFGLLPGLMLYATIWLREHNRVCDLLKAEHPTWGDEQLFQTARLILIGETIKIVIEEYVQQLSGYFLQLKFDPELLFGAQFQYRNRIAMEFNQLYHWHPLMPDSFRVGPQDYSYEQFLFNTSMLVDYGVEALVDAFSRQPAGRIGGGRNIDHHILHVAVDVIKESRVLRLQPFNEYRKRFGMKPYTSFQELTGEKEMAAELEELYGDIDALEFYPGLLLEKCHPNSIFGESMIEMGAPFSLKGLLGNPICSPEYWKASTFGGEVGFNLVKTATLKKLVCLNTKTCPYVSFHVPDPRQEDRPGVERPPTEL
Kind of assay: In vitro purified COX-1 inhibition assay (TLC, 14C-arachidonic acid). The class given is biochemical. How it is done:
(§1) The in vitro cyclooxygenase (ovine COX-1 or human COX-2) inhibitory activities of these probes were tested by a previously described TLC assay (FIGS. 19-21). Briefly, reaction mixtures of 200 μL consisted of hematin-reconstituted protein in 100 mM Tris-HCl, pH 8.0, 500 μM phenol, and [1-^14C]arachidonic acid (50 μM, about 55-57 mCi/mmol, Perkin Elmer).
Inhibition Assay Using Purified COX-1 and COX-2. Inhibition of purified ovine COX-1 or mouse COX-2 by test compounds was assayed by a previously described method, which quantifies the conversion of [1-^14C]arachidonic acid to [1-^14C]prostaglandin products. Reaction mixtures of 200 ∝L consisted of hematin-reconstituted protein in 100 mM Tris-HCl, pH 8.0, 500 μM phenol, and [1-^14C]arachidonic acid (50 μM, ˜55-57 mCi/mmol, Perkin Elmer). […] Reactions were terminated by solvent extraction in diethyl ether:methanol:1 M citrate buffer, pH 4.0 (30:4:1). The phases were separated by centrifugation at 2000 g for 2 min, and the organic phase was spotted on a thin-layer chromatography plate (EMD Kieselgel 60, VWR). The plate was developed in ethyl acetate:methylene chloride:glacial AcOH (75:25:1) at 4° C. Radiolabeled products were quantified with a radioactivity scanner (Bioscan, Inc., Washington, D.C.).

In a further assay the target is T2, murine COX-2 (Mus musculus, UniProt Q05769).
T2 sequence (Q05769 18-604): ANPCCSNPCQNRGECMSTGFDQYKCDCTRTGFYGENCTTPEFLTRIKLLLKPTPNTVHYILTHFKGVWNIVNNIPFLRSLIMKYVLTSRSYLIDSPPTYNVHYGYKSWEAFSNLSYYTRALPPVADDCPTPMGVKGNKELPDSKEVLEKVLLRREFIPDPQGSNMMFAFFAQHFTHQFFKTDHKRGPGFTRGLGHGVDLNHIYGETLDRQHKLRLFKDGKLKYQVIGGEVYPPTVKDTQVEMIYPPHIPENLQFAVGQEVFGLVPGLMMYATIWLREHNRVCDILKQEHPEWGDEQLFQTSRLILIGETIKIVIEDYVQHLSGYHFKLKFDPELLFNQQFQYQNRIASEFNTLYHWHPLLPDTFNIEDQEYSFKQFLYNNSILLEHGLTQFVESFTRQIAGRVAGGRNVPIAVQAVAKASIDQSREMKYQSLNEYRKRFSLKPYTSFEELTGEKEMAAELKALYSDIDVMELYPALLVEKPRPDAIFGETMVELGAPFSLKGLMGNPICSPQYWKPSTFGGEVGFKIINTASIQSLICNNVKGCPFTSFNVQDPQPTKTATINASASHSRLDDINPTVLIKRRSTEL
Put plainly: In vitro purified COX-2 inhibition assay (TLC, 14C-arachidonic acid). The class given is biochemical. The following applies: for COX-2 Selectivity Index (COX-1 IC50/COX-2 IC50): in vitro, purified enzymes. How it is done:
as §1
Inhibition Assay Using Purified COX-1 and COX-2. Inhibition of purified ovine COX-1 or mouse COX-2 by test compounds was assayed by a previously described method, which quantifies the conversion of [1-^14C]arachidonic acid to [1-^14C]prostaglandin products. Reaction mixtures of 200 ∝L consisted of hematin-reconstituted protein in 100 mM Tris-HCl, pH 8.0, 500 μM phenol, and [1-^14C]arachidonic acid (50 μM, ˜55-57 mCi/mmol, Perkin Elmer). For the time-dependent inhibition assay, hematin-reconstituted COX-1 ([…]) was preincubated at 25° C. for 17 min and 37° C. for 3 min with varying inhibitor concentrations in dimethylsulfoxide followed by the addition of [1-^14C]arachidonic acid (50 μM) for 30 s at 37° C. Reactions were terminated by solvent extraction in diethyl ether:methanol:1 M citrate buffer, pH 4.0 (30:4:1). The phases were separated by centrifugation at 2000 g for 2 min, and the organic phase was spotted on a thin-layer chromatography plate (EMD Kieselgel 60, VWR). The plate was developed in ethyl acetate:methylene chloride:glacial AcOH (75:25:1) at 4° C. Radiolabeled products were quantified with a radioactivity scanner (Bioscan, Inc., Washington, D.C.).

The test system of assay [1] is COX-2 expressing 1483 tumors. Put plainly: In vivo imaging of nude mice with 1483 xenografts. The following applies: 1 mg/kg intraperitoneal, nude mice 1483 xenografts. The method, then:
The specificity of probe 1 was also evaluated by targeting COX-2 in human tumor xenografts. Nude mice bearing 1483 xenograft tumors on the left flank were dosed by intraperitoneal injection with 1 mg/kg fluorocoxib A or compound 1 (FIG. 25). […] However, signal was detected in the COX-2 expressing 1483 tumors of mice dosed with compound 1 starting at 24 h. Maximum fluorescence is detectable in the tumor at 48 h post-injection of probe 1 (FIGS. 27A-C).
Establishment of xenograft tumors in nude mice. Human 1483 HNSCC cells and HCT116 colorectal carcinoma cells were used to grow tumor xenografts in nude mice using a previously described method. Female nude mice, NU-Foxlnu, were purchased at 6-7 weeks of age from Charles River Labs. Human 1483 HNSCC cells were trypsinized and resuspended in cold PBS containing 30% Matrigel such that 1×10^6 cells in 100 μl were injected subcutaneously on the left flank and grew for 2-3 weeks.
In vivo imaging of nude mice with xenografts. Fluorescence imaging of tumors by test compounds was performed by a previously described method. Female nude mice bearing medium-sized 1483 xenograft tumors on the left flank were dosed by intraperitoneal injection with 1 mg/kg compound 1. The animals were lightly anesthetized with 2% isoflurane for fluorescence imaging in the Xenogen IVIS 200 with the DSRed filter at 1.5 cm depth and 1 sec exposure (f2).

SMILES strings stand for the structures. Read-outs that look alike come from different tables or passages of the source.

For `COc1ccc2c(c1)c(CC(=O)NCCCCNC(=O)c1ccc(C3=c4cc5c6c(c4Oc4c3cc3c7c4CCCN7CCC3)CCC[N+]=6CCC5)c(C(=O)NC3CC(C)(C)N([O])C(C)(C)C3)c1)c(C)n2C(=O)c1ccc(Cl)cc1` [Compound 1], the IC50 at ovine COX-1 is more than 25000 nM; on murine COX-2 (COX-2 IC50, in vitro purified cox assay), 303 nM; against murine COX-2 (mCOX-2 IC50, purified murine COX-2 (63 nM), inhibitor 20 min, then 1-14C-AA (50 μM) 37° C. 30 s, duplicates) it was 300 nM. The “COX-2 Selectivity Index (COX-1 IC50/COX-2 IC50)” value on murine COX-2 is reported as more than 83. Besides, the “time post-injection at which tumor signal starts to be detected” value in assay [1] turned out to be 24 h. Also, in assay [1], the “time post-injection of maximum tumor fluorescence” value is recorded as 48 h.
As for `COc1ccc2c(c1)c(CC(=O)NCCCCNC(=O)c1ccc(C3=c4cc5c6c(c4Oc4c3cc3c7c4CCCN7CCC3)CCC[N+]=6CCC5)c(C(=O)[O-])c1)c(C)n2C(=O)c1ccc(Cl)cc1` [Fluorocoxib A, reference compound], the 50% inhibitory concentration (IC50) on ovine COX-1 (high throughput screening of fluorocoxib and chemocoxib libraries, read-out: purified COX-1 IC50) is more than 25000 nM; at ovine COX-1 (purified ovine COX-1 (22.5 nM), inhibitor 20 min, then 1-14C-AA (50 μM) 37° C. 30 s, duplicates, read-out: oCOX-1 IC50), more than 25000 nM. For the same compound, the “COX-2 Selectivity Index (COX-1 IC50/COX-2 IC50)” value on murine COX-2 was more than 35. Further, in assay [1] (3 h post-injection), the “fluorescence in the tumor” value was “fluorescence was observed in the tumor”.

In general, IC50 refers to the point on the concentration scale where inhibition reaches its midpoint.
